Measured values taken from patent publication US20060264406A1, “Mono-lysine salts of azole compounds” (Eisai Co., Ltd., priority 2005, published 2006).
Counter-ions that a name gives are not always drawn.

Tests used:
Format in all cases: physicochemical
[1] = moisture uptake (weight change versus relative humidity); details: 60% RH
Source text: Weight change (y-axis) versus relative humidity (x-axis) is shown, wherein adsorption is shown by -∘-, and desorption by -∘-.
For instance, Comparative Example 1 has about 10% change in weight at 60% RH (FIG. 1), whereas Example 1 has about 2-2.5% change in weight at the same humidity level (FIG. 2). On average, the mono-lysine salt or solvate thereof has better stability over the bis-lysine form (FIG. 4).

[2] = aqueous solubility of the salts and solvates; details: water
Method: The obtained solvate of the mono-lysine salt of ((2R,3R)-3-(4-(4-cyanophenyl)thiazol-2-yl)-2-(2,4-difluorophenyl)-1-(1H-1,2,4-triazol-1-yl)butan-2-yloxy)methyl dihydrogen phosphate is scaled up and fully characterized. Physical-chemical properties including solubility, stability, moisture uptake, compaction, etc., are evaluated and compared to the bis-lysine salt of Comparative Example 1.
Also, Example 1 retains a high aqueous solubility (>200 mg/mL) similar to that of the bis-lysine salt of Comparative Example 1.

[3] = physical stability under stressed storage conditions (area percent); details: for degradation on storage: 2-week stability data

C[C@@H](c1nc(-c2ccc(C#N)cc2)cs1)[C@@](Cn1cncn1)(OCOP(=O)(O)O)c1ccc(F)cc1F.NCCCC[C@H](N)C(=O)O.NCCCC[C@H](N)C(=O)O [Comparative Example 1, Bis-lysine salt of (2R,3R)-3-[4-(4-cyanophenyl)thiazol-2-yl]-2-(2,4-difluorophenyl)-1-(1H-1,2,4-triazol-1-yl)-2-[(dihydrogenphosphonoxy)methoxy]butane, reference compound]
change in weight (moisture uptake) [1]: about 10% | change in weight (moisture uptake) ([1]; listed as bis-lysine monoethanolate): 10%

C[C@@H](c1nc(-c2ccc(C#N)cc2)cs1)[C@@](Cn1cncn1)(OCOP(=O)(O)O)c1ccc(F)cc1F [Example 1, ((2R,3R)-3-(4-(4-cyanophenyl)thiazol-2-yl)-2-(2,4-difluorophenyl)-1-(1H-1,2,4-triazol-1-yl)butan-2-yloxy)methyl dihydrogen phosphate mono-lysine salt ethanol solvate]
change in weight (moisture uptake) [1]: 2-2.5% | weight change for adsorption [1]: < 2.5% | weight change for desorption [1]: < 5% | change in weight (moisture uptake) ([1]; listed as mono-lysine monoethanolate): 2-3% | Solubility [2]: >200 mg/mL | solubility [2]: > 200 mg/mL | degradation on storage ([3]; 40° C./75% RH (open and closed)): minimal degradation | degradation on storage ([3]; any other storage conditions): No degradation | Area Percent (AP as phosphonoxoxymethyl ether derivative of ravuconazole) ([3]; 5° C., 1 Week): 98.47 Area Percent | Area Percent (AP as phosphonoxoxymethyl ether derivative of ravuconazole) ([3]; 5° C., 2 Weeks): 99.60 Area Percent | Area Percent (AP as phosphonoxoxymethyl ether derivative of ravuconazole) ([3]; 5° C., 5 Days): 99.59 Area Percent | Area Percent (AP as phosphonoxoxymethyl ether derivative of ravuconazole) ([3]; 25° C./60% RH (Closed), 1 Week): 99.66 Area Percent | Area Percent (AP as phosphonoxoxymethyl ether derivative of ravuconazole) ([3]; 25° C./60% RH (Closed), 2 Weeks): 99.21 Area Percent | Area Percent (AP as phosphonoxoxymethyl ether derivative of ravuconazole) ([3]; 25° C./60% RH (Closed), 5 Days): 99.59 Area Percent | Area Percent (AP as phosphonoxoxymethyl ether derivative of ravuconazole) ([3]; 25° C./60% RH (Open), 1 Week): 99.65 Area Percent | Area Percent (AP as phosphonoxoxymethyl ether derivative of ravuconazole) ([3]; 25° C./60% RH (Open), 2 Weeks): 99.42 Area Percent | Area Percent (AP as phosphonoxoxymethyl ether derivative of ravuconazole) ([3]; 25° C./60% RH (Open), 5 Days): 99.61 Area Percent | Area Percent (AP as phosphonoxoxymethyl ether derivative of ravuconazole) ([3]; 40° C./75% RH (Closed), 1 Week): 99.05 Area Percent | Area Percent (AP as phosphonoxoxymethyl ether derivative of ravuconazole) ([3]; 40° C./75% RH (Closed), 2 Weeks): 97.90 Area Percent | Area Percent (AP as phosphonoxoxymethyl ether derivative of ravuconazole) ([3]; 40° C./75% RH (Closed), 5 Days): 99.20 Area Percent | Area Percent (AP as phosphonoxoxymethyl ether derivative of ravuconazole) ([3]; 40° C./75% RH (Open), 1 Week): 98.76 Area Percent | Area Percent (AP as phosphonoxoxymethyl ether derivative of ravuconazole) ([3]; 40° C./75% RH (Open), 2 Weeks): 96.90 Area Percent | Area Percent (AP as phosphonoxoxymethyl ether derivative of ravuconazole) ([3]; 40° C./75% RH (Open), 5 Days): 98.97 Area Percent | Area Percent (AP as phosphonoxoxymethyl ether derivative of ravuconazole) ([3]; 60° C., 1 Week): 99.70 Area Percent | Area Percent (AP as phosphonoxoxymethyl ether derivative of ravuconazole) ([3]; 60° C., 2 Weeks): 99.73 Area Percent | Area Percent (AP as phosphonoxoxymethyl ether derivative of ravuconazole) ([3]; 60° C., 5 Days): 99.70 Area Percent | Area Percent (AP as phosphonoxoxymethyl ether derivative of ravuconazole) ([3]; HIL/UV (Controlled), 1 Week): 99.64 Area Percent | Area Percent (AP as phosphonoxoxymethyl ether derivative of ravuconazole) ([3]; HIL/UV (Controlled), 2 Weeks): 99.68 Area Percent | Area Percent (AP as phosphonoxoxymethyl ether derivative of ravuconazole) ([3]; HIL/UV (Controlled), 5 Days): 99.60 Area Percent | Area Percent (AP as phosphonoxoxymethyl ether derivative of ravuconazole) ([3]; HIL/UV (Exposed), 1 Week): 98.68 Area Percent | Area Percent (AP as phosphonoxoxymethyl ether derivative of ravuconazole) ([3]; HIL/UV (Exposed), 2 Weeks): 99.68 Area Percent | Area Percent (AP as phosphonoxoxymethyl ether derivative of ravuconazole) ([3]; HIL/UV (Exposed), 5 Days): 99.61 Area Percent | Area Percent (AP as phosphonoxoxymethyl ether derivative of ravuconazole) ([3]; Initial): 99.56 Area Percent

CC(C)O.C[C@@H](c1nc(-c2ccc(C#N)cc2)cs1)[C@@](Cn1cncn1)(OCOP(=O)(O)O)c1ccc(F)cc1F.NCCCC[C@H](N)C(=O)O [Example 5, ((2R,3R)-3-(4-(4-cyanophenyl)thiazol-2-yl)-2-(2,4-difluorophenyl)-1-(1H-1,2,4-triazol-1-yl)butan-2-yloxy)methyl dihydrogen phosphate mono-lysine salt isopropyl alcohol solvate]
weight change for adsorption [1]: < 0.5%
